Results: ChEMBL document CHEMBL4229535, “Design, synthesis and evaluation of oxime-functionalized nitrofuranylamides as novel antitubercular agents” (2018)
In brackets after ≈: the same amount, converted by molar mass.

How the values were obtained:
Type in all cases: functional
[1] = test system: Mycobacterium tuberculosis; experiment: Antimycobacterial activity against multidrug-resistant Mycobacterium tuberculosis isolate 16833 after 7 days by microplate alamar blue assay; settings: isolate 16833, 168 h
[2] = Resistance index, ratio of MIC>90 for multidrug-resistant Mycobacterium tuberculosis clinical isolate 16833 to MIC>90 for Mycobacterium tuberculosis H37Rv ATCC 27294
[3] = test system: Mycobacterium tuberculosis; experiment: Antimycobacterial activity against multidrug-resistant Mycobacterium tuberculosis isolate 16995 after 7 days by microplate alamar blue assay; settings: isolate 16995, 168 h
[4] = Resistance index, ratio of MIC>90 for multidrug-resistant Mycobacterium tuberculosis clinical isolate 16995 to MIC>90 for Mycobacterium tuberculosis H37Rv ATCC 27294

## O=C(c1ccc([N+](=O)[O-])o1)N1CCC(=NOCc2ccccc2)CC1
[1]
  MIC90: 0.482 mg/L (≈ 1.4 µM)
[2]
  Ratio: 1
[3]
  MIC90: 0.426 mg/L (≈ 1.24 µM)
[4]
  Ratio: 1

## CON=C1CCN(C(=O)c2ccc([N+](=O)[O-])o2)CC1
[1]
  MIC90: 1.91 mg/L (≈ 7.16 µM)
[2]
  Ratio: 1
[3]
  MIC90: 1.94 mg/L (≈ 7.24 µM)
[4]
  Ratio: 1

## CO[C@H]1/C=C/O[C@@]2(C)Oc3c(C)c(O)c4c(O)c(c(/C=N/N5CCN(C)CC5)c(O)c4c3C2=O)NC(=O)/C(C)=C\C=C\[C@H](C)[C@H](O)[C@@H](C)[C@@H](O)[C@@H](C)[C@H](OC(C)=O)[C@@H]1C [RIFAMPIN]
[1]
  MIC90: > 40 mg/L
[3]
  MIC90: > 40 mg/L

## O=C(c1ccc([N+](=O)[O-])o1)N1CCc2ccccc21
[1]
  MIC90: > 4 mg/L
[3]
  MIC90: > 4 mg/L

## CO/N=C1\CCN(C(=O)c2ccc([N+](=O)[O-])o2)C1
[1]
  MIC90: 1.93 mg/L (≈ 7.61 µM)
[2]
  Ratio: 1
[3]
  MIC90: 1.91 mg/L (≈ 7.54 µM)
[4]
  Ratio: 1

## O=C(c1ccc([N+](=O)[O-])o1)N1CC/C(=N\OCc2ccccc2)C1
[1]
  MIC90: 0.207 mg/L (≈ 0.629 µM)
[2]
  Ratio: 1
[3]
  MIC90: 0.38 mg/L (≈ 1.15 µM)
[4]
  Ratio: 1

## NNC(=O)c1ccncc1 [ISONIAZID]
[1]
  MIC90: > 40 mg/L
[3]
  MIC90: > 40 mg/L
